Experiments:
ASCT1/2 = assay: [3H]L-serine transport into primary rat hippocampal astrocytes; format: cell-based; details: for IC50: inhibition of [3H]L-serine transport, rat astrocytes, 6-12 point curves, n of 3-4, read-out: Astro ASCT1/2 IC50; for inhibition of radiolabelled substrate transport: rat brain astrocytes in culture
Method: (§1) Cell-based assays: the transport of [^3H]L- or D-serine was measured in primary cultures of rat hippocampal astrocytes or in human embryonic kidney (HEK) cells expressing ASCT transporter sub-types. For the astrocyte assays, cells were plated on either 24- or 96-well plates at a density of 50,000 cells per well. For the HEK assays, cells were plated on coated 96-well plates at a density of 80,000 cells/well. Assays were conducted in duplicate at room temperature in assay buffer consisting of: NaCl: 150 mM, KCl: 2 mM; MgCl2: 1 mM; CaCl2: 1 mM; HEPES: Tris buffer: 10 mM, pH7.4. To assess the sodium-dependence of transport, NaCl was replaced in the assay buffer by equimolar choline chloride. Following aspiration of growth medium and 2 washes with assay buffer, cells were incubated with [^3H]L- or D-serine at a final concentration of 1 μM for 5 min (astrocytes) or 1 min (HEK cells), after which the incubation medium was aspirated and the cells washed twice with ice-cold assay buffer. Cells containing radiolabel were solubilized in 100 μl of 1% Triton-X100 and an aliquot counted in a beta counter. IC50 values were determined over a range of at least 6 concentrations and derived from curve-fitting algorithms available in GraphPad Prism 4. Table 2 reflects the IC50 values for the inhibition of [^3H]L-serine transport into astrocytes and HEK cells expressing recombinant human ASCT1 or ASCT2. Values are IC50's in μM from 6-12 point inhibition curves, with an n of 3-4.

human ASCT2 [1] = biological target: T1, human ASCT2 (Homo sapiens, UniProt Q15758); assay: [3H]L-serine transport into HEK cells expressing recombinant human ASCT2; format: cell-based; details: inhibition of [3H]L-serine transport, HEK cells with human ASCT2, n of 3-4; read-out: HEK1A5 ASCT2 IC50
T1 construct: expressed in transfected cells; host or cells: HEK293 cells stably expressing ASCT2
T1 sequence (Q15758 1-541): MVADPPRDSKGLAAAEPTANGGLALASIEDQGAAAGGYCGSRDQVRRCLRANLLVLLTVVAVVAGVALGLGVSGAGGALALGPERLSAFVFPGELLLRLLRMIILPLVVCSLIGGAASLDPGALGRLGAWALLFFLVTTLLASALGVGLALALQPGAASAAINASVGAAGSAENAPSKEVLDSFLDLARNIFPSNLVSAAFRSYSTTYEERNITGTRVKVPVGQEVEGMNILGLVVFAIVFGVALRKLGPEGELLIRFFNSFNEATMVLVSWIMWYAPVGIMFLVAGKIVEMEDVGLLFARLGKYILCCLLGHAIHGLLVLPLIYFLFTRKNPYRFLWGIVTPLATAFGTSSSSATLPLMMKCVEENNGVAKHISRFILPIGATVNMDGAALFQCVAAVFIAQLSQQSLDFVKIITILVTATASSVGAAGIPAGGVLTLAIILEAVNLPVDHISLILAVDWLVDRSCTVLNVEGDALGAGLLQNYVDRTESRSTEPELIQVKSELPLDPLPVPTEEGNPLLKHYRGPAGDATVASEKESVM
Method: as §1, with “Values are IC50's in μM from 6-12 point inhibition curves, with an n of 3-4.” left out

human ASCT2 [2] = biological target: T1, human ASCT2; assay: Whole cell patch-clamp transport currents in HEK cells expressing human ASCT2; format: cell-based; details: for effect on substrate-evoked inward current: HEK ASCT2, with 0.3 mM L-serine; for current in the absence of applied substrate: HEK ASCT2, without L-serine
Method: (§2) Patch-Clamp Recording in HEK 293 Cells (FIGS. 1A, 1B, 2A and 2B):
(§3) Transport currents were recorded in human embryonic kidney (HEK) cells expressing human ASCT1 or ASCT2 transporter using whole cell patch-clamp. Extracellular solution contains: 140 mM NaCl, 2.0 mM MgCl2, 2.0 CaCl2, 10 mM HEPES, pH 7.4. The recording pipettes were filled with ICM containing: 130 mM NaSCN, 10 mM EGTA, 2 mM MgCl2, 10 mM HEPES, 10 mM L-alanine pH 7.3. The inhibitory effects of compounds were measured without/with 300 μM L-serine and normalized to these by 4-hydroxy-phenyglycine (100%).

human ASCT1 [3] = biological target: T2, human ASCT1 (Homo sapiens, UniProt P43007); assay: Whole cell patch-clamp transport currents in HEK cells expressing human ASCT1; format: cell-based; details: for effect on substrate-evoked inward current: HEK ASCT1, with 0.3 mM L-serine; for current in the absence of applied substrate: HEK ASCT1, without L-serine
T2 construct: expressed in transfected cells; host or cells: HEK293 cells stably expressing ASCT1
T2 sequence (P43007 1-532): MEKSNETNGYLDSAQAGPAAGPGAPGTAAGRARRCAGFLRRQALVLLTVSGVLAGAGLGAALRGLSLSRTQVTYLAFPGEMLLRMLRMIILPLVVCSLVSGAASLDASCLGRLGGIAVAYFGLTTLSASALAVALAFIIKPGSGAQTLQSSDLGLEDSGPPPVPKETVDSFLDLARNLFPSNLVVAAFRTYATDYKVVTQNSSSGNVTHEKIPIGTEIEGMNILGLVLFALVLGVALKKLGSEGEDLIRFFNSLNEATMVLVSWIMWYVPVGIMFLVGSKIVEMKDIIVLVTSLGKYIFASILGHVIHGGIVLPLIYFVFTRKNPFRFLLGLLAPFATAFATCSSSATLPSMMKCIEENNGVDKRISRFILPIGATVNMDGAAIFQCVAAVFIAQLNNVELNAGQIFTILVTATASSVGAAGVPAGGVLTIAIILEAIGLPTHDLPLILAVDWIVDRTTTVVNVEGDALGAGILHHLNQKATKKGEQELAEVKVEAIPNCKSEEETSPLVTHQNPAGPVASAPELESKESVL
Method: as §2, §3

human ASCT1 [4] = biological target: T2, human ASCT1; assay: [3H]L-serine transport into HEK cells expressing recombinant human ASCT1; format: cell-based; details: inhibition of [3H]L-serine transport, HEK cells with human ASCT1, n of 3-4; read-out: HEK1A4 ASCT1 IC50
Method: as §1, with “Values are IC50's in μM from 6-12 point inhibition curves, with an n of 3-4.” left out

[5] = tested on: LTP in primary visual cortex; assay: Visual cortex slice physiology: long-term potentiation (LTP); set-up: species or system rat
Method: Following decapitation of the rat, the brain was rapidly removed and immersed in ice-cold artificial cerebrospinal fluid (ACSF) containing 124 mM NaCl, 3 mM KCl, 1.25 mM KH2PO4, 3.4 mM CaCl2, 2.5 mM MgSO4, 26 mM NaHCO3, and 10 mM D-glucose. A block of visual cortex was created by removing the frontal ⅔ portion of the brain and the cerebellum. Coronal visual cortex slices of 375 μm were prepared from adult Sprague Dawley (SD) rats using a vibratome (VT 1000 S; Leica). The slices were maintained in an interface recording chamber perfused with preheated ACSF. Slices were continuously perfused with this solution at a rate of 1.00-1.50 ml/min while the surface of the slices was exposed to warm, humidified 95% O2/5% CO2 and maintained at 31±1° C. Visual cortex slices were allowed to recover for 1 hr before recording began. A single stimulating and recording electrode were placed in layer IV and III, respectively, to generate and record a field excitatory postsynaptic potentials (fEPSPs). […] This was repeated 2 additional times with a 1 minute intertrain interval, and the level of LTP was recorded for at least 30 min. Changes in amplitude of the synaptic response were used to measure the extent of LTP because it was determined to be the more consistent parameter than the slope of the response. […]

O=C(O)[C@@H]1NC[C@H](OCc2cccc(Oc3ccccc3)c2)[C@H]1O (stereo in doubt) [(2R,3S,4S)-3-hydroxy-4-[(3-phenoxybenzyl)oxy]pyrrolidine-2-carboxylic acid]
IC50 (ASCT1/2): 10.7 µM
inhibition of radiolabelled substrate transport (ASCT1/2): completely inhibited
IC50 (human ASCT2 [1]): 65.2 µM
effect on substrate-evoked inward current (human ASCT2 [2]): inhibited the substrate-evoked inward current
current in the absence of applied substrate (human ASCT2 [2]): evoked an outward current
effect on substrate-evoked inward current (human ASCT1 [3]): inhibited the substrate-evoked inward current
current in the absence of applied substrate (human ASCT1 [3]): evoked an outward current
IC50 (human ASCT1 [4]): 46.4 µM

O=C(O)[C@@H]1NC[C@H](OCc2ccc(-c3ccccc3)cc2)[C@H]1O (stereo in doubt) [(2R,3S,4S)-4-(biphenyl-4-ylmethoxy)-3-hydroxypyrrolidine-2-carboxylic acid]
IC50 (ASCT1/2): 0.6 µM
inhibition of radiolabelled substrate transport (ASCT1/2): completely inhibited
IC50 (human ASCT2 [1]): 2.8 µM
effect on substrate-evoked inward current (human ASCT2 [2]): inhibited the substrate-evoked inward current
current in the absence of applied substrate (human ASCT2 [2]): evoked an outward current
effect on substrate-evoked inward current (human ASCT1 [3]): inhibited the substrate-evoked inward current
current in the absence of applied substrate (human ASCT1 [3]): evoked an outward current
IC50 (human ASCT1 [4]): 3.6 µM
effect on LTP in rat visual cortex slice ([5]; 0.1 and 0.3 μM): dose-dependently facilitates long-term potentiation (LTP)
concentration that enhanced LTP in visual cortex ([5]; rat visual cortex slice, as low as): ≤ 0.1 µM

— US20150174095A1, “PHARMACEUTICAL COMPOSITIONS FOR THE TREATMENT OF VISUAL SYSTEM DISORDERS” (Allergan, Inc., priority 2013, published 2015)
